Results on 22 compounds are retold here after PubChem BioAssay (NCI).

Some test systems named below: A498 renal; EKVX NSCLC; HCC-2998 colon; HCT-15 colon; HOP-92 NSCLC; MALME-3M melanoma; NCI-H226 lung; NCI-H23 lung; U251 CNS; SNB-75 CNS; MDA-N.
Common to all, as to experiment: inhibition of tumour cell growth, NCI panel, 48 h

Structures are written as SMILES.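 In this assay, cells in 96-well plates receive the compound at five concentrations for 48 hours. Endpoints are linearly interpolated between the surrounding concentrations. GI50: concentration for 50% inhibition of growth. TGI denotes the concentration required for complete inhibition of growth.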

On to `CC1(O)CC23CC(O)C4(O)C(CC(O)C4(C)C)C(C)(O)C2CCC1C3O` (stereo not given), for which the TGI in the experiment with A498 renal, with EKVX NSCLC, in the experiment on HCC-2998 colon, with HCT-15 colon, in the experiment on HOP-92 NSCLC and in the experiment on MALME-3M melanoma was greater than 100 µM each time. Further, the TGI in the experiment on NCI-H226 lung, in the experiment with NCI-H23 lung and with U251 CNS was greater than 100 µM each time.
Regarding `CC(C)C(Nc1c2ccccc2[n+](C)c2ccccc12)C(=O)O` (stereo not given), the TGI with A498 renal, in the experiment on EKVX NSCLC, in the experiment on HCC-2998 colon, in the experiment on HCT-15 colon, in the experiment on MALME-3M melanoma and in the experiment on NCI-H226 lung was greater than 100 µM in each case. Moreover, the TGI in the experiment on NCI-H23 lung, in the experiment on SNB-75 CNS and in the experiment on U251 CNS was greater than 100 µM in each case.
For `CCOC(=O)/C(=C/c1cn(C(C)=O)c2ccccc12)P(=O)(OC)OC`, the TGI in the experiment on A498 renal was 52.4 µM; in the experiment with HCT-15 colon it was greater than 100 µM; with HOP-92 NSCLC, greater than 100 µM; in the experiment on NCI-H23 lung, greater than 100 µM; with SNB-75 CNS, 60.1 µM; with U251 CNS, greater than 100 µM.
Consider `CN1CCN(Cc2ccc(C(=S)Nc3ccccc3)s2)CC1`, for which the TGI was greater than 100 µM with A498 renal; greater than 100 µM in the experiment with EKVX NSCLC; greater than 100 µM in the experiment with HCC-2998 colon; 55.4 µM with HCT-15 colon; greater than 100 µM with MALME-3M melanoma; greater than 100 µM in the experiment with MDA-N. In addition, the TGI in the experiment on NCI-H23 lung is 61.8 µM; in the experiment with U251 CNS, greater than 100 µM.
`CCCCCCCCCCCCCCCC[N+](C)(C)CCl`: the TGI in the experiment on A498 renal stood at 32.2 µM; with EKVX NSCLC, 22.8 µM; in the experiment with HCC-2998 colon it was 3.18 µM; in the experiment on HCT-15 colon, 20.9 µM; with MALME-3M melanoma it was 7.38 µM; with MDA-N, 15.4 µM. Further, the TGI in the experiment with NCI-H226 lung came to 6.25 µM; in the experiment on NCI-H23 lung, 27.8 µM; with SNB-75 CNS, 5.18 µM; with U251 CNS, 3.04 µM.
As to `Cc1cc(C)c(C2=NO[C@@H]3[C@H]2C(=O)C=C2N(Cc4ccccc4)CCO[C@@]23O)c(C)c1`, the TGI in the experiment with A498 renal, with EKVX NSCLC, with HCC-2998 colon, in the experiment with HCT-15 colon, with HOP-92 NSCLC and in the experiment with MALME-3M melanoma was greater than 100 µM in each case. In addition, the TGI in the experiment with NCI-H226 lung, in the experiment with NCI-H23 lung, in the experiment with SNB-75 CNS and in the experiment with U251 CNS was greater than 100 µM each time.
Consider `C[N+](C)([O-])C12CC3CC(CC(C3)C1)C2`, for which the TGI with A498 renal was 67.7 µM; with EKVX NSCLC, 74.3 µM; in the experiment on HCC-2998 colon, greater than 100 µM; with HCT-15 colon, greater than 100 µM; in the experiment on MALME-3M melanoma it was greater than 100 µM; in the experiment with MDA-N it was greater than 100 µM. The TGI in the experiment on NCI-H226 lung, in the experiment with NCI-H23 lung, in the experiment on SNB-75 CNS and in the experiment with U251 CNS was greater than 100 µM in each case.
In the case of `Nc1c(-c2ccccc2)c2ccc([N+](=O)[O-])cc2c(=O)n1-c1cccc(C(=O)O)c1`, the TGI with A498 renal, in the experiment on EKVX NSCLC, with HCC-2998 colon, with HCT-15 colon, with MDA-N and in the experiment on NCI-H226 lung was greater than 100 µM each time. Also, the TGI in the experiment with NCI-H23 lung, with SNB-75 CNS and with U251 CNS was greater than 100 µM throughout.
For `COc1cc(C2C3=C(NC(=O)C2C#N)c2ccc4ccccc4c2OCC3)cc(OC)c1OC` (stereo not given), the TGI is 44 µM in the experiment with A498 renal; greater than 100 µM in the experiment on EKVX NSCLC; 65.2 µM in the experiment with HCC-2998 colon; greater than 100 µM in the experiment with HCT-15 colon; 29.7 µM with HOP-92 NSCLC; 72.5 µM in the experiment on MALME-3M melanoma. In addition, the results for the TGI in the experiment on NCI-H23 lung, with SNB-75 CNS and in the experiment with U251 CNS were greater than 100 µM, 34.5 µM and 30.4 µM, respectively.
As to `Nc1ncnc2c1ncn2C1C(O)C=C(CO)C1O` (stereo not given), the TGI in the experiment with HCC-2998 colon, in the experiment with HCT-15 colon, in the experiment with HOP-92 NSCLC, with MALME-3M melanoma and in the experiment with NCI-H226 lung was greater than 625 µM throughout.
For the compound `Cc1cc(C)n(C(=CC(=O)C(Cl)Cl)n2nc(C)cc2C)n1`, the TGI was greater than 100 µM in the experiment with A498 renal; 10.7 µM with HCT-15 colon; 24.2 µM with HOP-92 NSCLC; 15.7 µM in the experiment with MALME-3M melanoma; 2.56 µM with NCI-H226 lung; 13.2 µM with NCI-H23 lung. In addition, the TGI is greater than 100 µM with SNB-75 CNS and 20.4 µM in the experiment with U251 CNS.
For the compound `O=C(Nc1nnc(-c2ccccc2)o1)C(SC(=S)N1CCCC1)c1ccccc1` (stereo not given), the TGI was 81.6 µM with A498 renal; 68 µM with EKVX NSCLC; greater than 100 µM in the experiment on HCT-15 colon; greater than 100 µM in the experiment on MALME-3M melanoma; greater than 100 µM in the experiment with MDA-N; greater than 100 µM with NCI-H226 lung. Besides, the TGI was 79.7 µM in the experiment on NCI-H23 lung, greater than 100 µM in the experiment with SNB-75 CNS and greater than 100 µM in the experiment on U251 CNS.
Regarding `COc1ccc(C2CC(c3cccc(Nc4ccncc4)c3)=NN2c2ccccc2)cc1` (stereo not given), the GI50 was 1.41 µM in the experiment on A498 renal; 2.73 µM in the experiment on EKVX NSCLC; 1.61 µM with HCC-2998 colon; 1.74 µM in the experiment with HCT-15 colon; 1.62 µM with MALME-3M melanoma; 2.31 µM with NCI-H226 lung. In addition, the GI50 is 1.88 µM with NCI-H23 lung, 1.55 µM with SNB-75 CNS and 1.94 µM in the experiment on U251 CNS. Besides, the TGI amounted to 9.69 µM in the experiment with A498 renal; 10.2 µM with EKVX NSCLC; 3.01 µM with HCC-2998 colon; 3.44 µM in the experiment with HCT-15 colon; 3.08 µM in the experiment with MALME-3M melanoma; 8.83 µM in the experiment on NCI-H226 lung. Moreover, the TGI in the experiment on NCI-H23 lung was found to be 3.87 µM; in the experiment on SNB-75 CNS it was 5.23 µM; in the experiment with U251 CNS, 3.8 µM.
`CCOC(=O)CSc1nc(-c2ccc(Cl)cc2)c(C#N)c(=O)[nH]1`: the TGI in the experiment with A498 renal, in the experiment with EKVX NSCLC, in the experiment with HCC-2998 colon, with HCT-15 colon, in the experiment on HOP-92 NSCLC and in the experiment with NCI-H226 lung was greater than 100 µM throughout. Besides, the TGI in the experiment on NCI-H23 lung, with SNB-75 CNS and with U251 CNS was greater than 100 µM in each case.
As for `CN(C)c1ccc(/C=C2\N=C(c3ccccc3)N(c3nc4ccc(Sc5ccccc5)cc4[nH]3)C2=O)cc1`, the TGI in the experiment with A498 renal is greater than 100 µM; with EKVX NSCLC, greater than 100 µM; in the experiment on HCC-2998 colon, 33.5 µM; in the experiment on HCT-15 colon, greater than 100 µM; with HOP-92 NSCLC, greater than 100 µM; in the experiment on MALME-3M melanoma, greater than 100 µM. In addition, the TGI in the experiment with NCI-H23 lung, in the experiment with SNB-75 CNS and in the experiment on U251 CNS was greater than 100 µM throughout.
Take `CC(C)(C)[C@H]1NC(=O)CN1C(=O)OCc1ccccc1`: the TGI with A498 renal is 54.9 µM; in the experiment on EKVX NSCLC, greater than 100 µM; in the experiment on HCC-2998 colon, greater than 100 µM; in the experiment on HCT-15 colon, greater than 100 µM; with HOP-92 NSCLC it was 31.9 µM; in the experiment with MALME-3M melanoma, greater than 100 µM. In addition, the TGI in the experiment with NCI-H226 lung, in the experiment with NCI-H23 lung, in the experiment with SNB-75 CNS and with U251 CNS was greater than 100 µM throughout.
In the case of `CCOC(=O)NCC(=O)NCC(=O)NCC(N)=O`, the TGI in the experiment with EKVX NSCLC, with HCC-2998 colon, in the experiment with HCT-15 colon, in the experiment with MALME-3M melanoma, with MDA-N and in the experiment with NCI-H226 lung was greater than 100 µM in each case. The TGI in the experiment on NCI-H23 lung and with U251 CNS was greater than 100 µM throughout.
`COc1cc2c(cc1OCCN1CCN(CCOc3cc4c(cc3OC)C(=O)N3CCC[C@H]3C=N4)CC1)N=C[C@@H]1CCCN1C2=O`: the TGI was greater than 72.5 µM with A498 renal; greater than 100 µM in the experiment on EKVX NSCLC; greater than 100 µM in the experiment with HCT-15 colon; 4.27 µM in the experiment with HOP-92 NSCLC; 38.4 µM in the experiment on MALME-3M melanoma; 66.2 µM with NCI-H226 lung. Also, the TGI is 46 µM in the experiment on NCI-H23 lung, greater than 100 µM in the experiment on SNB-75 CNS and greater than 89.7 µM in the experiment on U251 CNS.
Turning to `CC1CC(C)(C)CC(OCCN2CCCCC2)(c2ccccc2)C1` (stereo not given), the TGI with A498 renal stood at 26.1 µM; in the experiment with EKVX NSCLC, 19.5 µM; in the experiment on HCT-15 colon it was 27.5 µM; in the experiment on HOP-92 NSCLC it was 21.7 µM; in the experiment on MALME-3M melanoma, 23.4 µM; in the experiment on NCI-H226 lung, 38.3 µM. For the same compound, the TGI in the experiment with NCI-H23 lung came out at 32.6 µM; with SNB-75 CNS, 28.8 µM; with U251 CNS it was 25.5 µM.
As for `COc1cc(CNc2nc3c(NC(C)=O)cc(C(F)(F)F)cc3nc2-c2ccccc2)cc(OC)c1OC`, the TGI in the experiment with EKVX NSCLC, with HCC-2998 colon, in the experiment with HCT-15 colon, in the experiment with HOP-92 NSCLC, in the experiment on MALME-3M melanoma and with NCI-H226 lung was greater than 100 µM each time.
In the case of `CCn1c(-c2cc3ccccc3cc2OC(C)=O)n[nH]c1=S`, the TGI was 84.8 µM in the experiment on A498 renal; 57.9 µM in the experiment on EKVX NSCLC; 38.5 µM in the experiment on HCC-2998 colon; 87.1 µM in the experiment with HCT-15 colon; greater than 100 µM with HOP-92 NSCLC; greater than 100 µM in the experiment on NCI-H226 lung. For the same compound, the TGI with NCI-H23 lung turned out to be 87.9 µM; with U251 CNS, 51.4 µM.
For `Cc1cc(Br)c(O)c(-c2cscn2)c1`, the TGI stood at 76.8 µM in the experiment with A498 renal; 96.1 µM in the experiment on EKVX NSCLC; 36.2 µM with HCC-2998 colon; 18.4 µM in the experiment with HCT-15 colon; 43.1 µM in the experiment with HOP-92 NSCLC; 43.7 µM in the experiment on MALME-3M melanoma. In the experiment on NCI-H23 lung, the TGI came out at 35.6 µM.
